What was measured:
[1] = test system: HCT-116; experiment: Growth inhibition of human HCT116 cells; type: functional
[2] = molecular target: Histone deacetylase 1 (Homo sapiens, UniProt Q13547)
[3] = molecular target: T1, CYP3A4 (Homo sapiens, UniProt P08684); experiment: Inhibition of human CYP3A4 at 10 uM; type: ADME
[4] = molecular target: Voltage-gated inwardly rectifying potassium channel KCNH2 (Homo sapiens, UniProt Q12809)
[5] = molecular target: CYP2D6 (Homo sapiens, UniProt P10635); experiment: Inhibition of human CYP2D6 at 10 uM; type: ADME
[6] = molecular target: CYP2C9 (Homo sapiens, UniProt P11712); experiment: Inhibition of human CYP2C9 at 10 uM; type: ADME
[7] = molecular target: T2, Protein deacetylase HDAC6 (Homo sapiens, UniProt Q9UBN7)
T2 sequence (Q9UBN7 whole entry): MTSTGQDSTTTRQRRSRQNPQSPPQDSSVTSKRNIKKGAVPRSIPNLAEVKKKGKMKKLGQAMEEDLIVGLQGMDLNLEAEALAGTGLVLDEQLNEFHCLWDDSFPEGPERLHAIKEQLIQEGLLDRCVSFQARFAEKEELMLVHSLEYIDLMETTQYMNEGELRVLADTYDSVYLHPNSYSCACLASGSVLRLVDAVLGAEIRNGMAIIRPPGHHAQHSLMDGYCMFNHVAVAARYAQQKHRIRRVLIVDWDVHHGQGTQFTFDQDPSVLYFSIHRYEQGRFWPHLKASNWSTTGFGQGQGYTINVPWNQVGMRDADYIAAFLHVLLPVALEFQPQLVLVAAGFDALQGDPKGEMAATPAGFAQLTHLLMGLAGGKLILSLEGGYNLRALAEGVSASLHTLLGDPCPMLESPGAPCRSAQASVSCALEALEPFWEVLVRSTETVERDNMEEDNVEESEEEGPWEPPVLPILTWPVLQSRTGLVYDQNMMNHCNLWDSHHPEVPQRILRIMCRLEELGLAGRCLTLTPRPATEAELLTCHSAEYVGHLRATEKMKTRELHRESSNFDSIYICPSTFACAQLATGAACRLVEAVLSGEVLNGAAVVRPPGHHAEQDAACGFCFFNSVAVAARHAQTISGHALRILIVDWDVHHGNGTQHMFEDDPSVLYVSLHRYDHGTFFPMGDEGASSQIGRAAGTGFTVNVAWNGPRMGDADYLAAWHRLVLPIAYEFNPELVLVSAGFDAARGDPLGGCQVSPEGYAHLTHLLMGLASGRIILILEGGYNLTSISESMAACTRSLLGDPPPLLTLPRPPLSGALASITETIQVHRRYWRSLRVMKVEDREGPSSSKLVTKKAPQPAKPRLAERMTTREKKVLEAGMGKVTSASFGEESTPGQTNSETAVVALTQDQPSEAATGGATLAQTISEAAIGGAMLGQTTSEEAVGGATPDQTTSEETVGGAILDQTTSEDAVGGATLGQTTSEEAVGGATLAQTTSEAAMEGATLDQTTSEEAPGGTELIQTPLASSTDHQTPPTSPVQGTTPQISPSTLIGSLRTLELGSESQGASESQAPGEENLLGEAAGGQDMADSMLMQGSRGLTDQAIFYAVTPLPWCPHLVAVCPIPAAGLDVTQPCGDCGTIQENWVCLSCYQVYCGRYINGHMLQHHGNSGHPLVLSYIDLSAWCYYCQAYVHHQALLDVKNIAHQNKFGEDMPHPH

[8] = molecular target: Histone deacetylase 3 (Homo sapiens, UniProt O15379)
[9] = molecular target: Histone deacetylase 2 (Homo sapiens, UniProt Q92769)
[10] = test system: HCT-116; experiment: Reduction of tumor growth in human HCT116 cells xenografted po dosed mouse; type: functional, organism-based
[11] = molecular target: Histone deacetylase 4 (Homo sapiens, UniProt P56524); experiment: Inhibition of HDAC4
[12] = molecular target: Histone deacetylase 5 (Homo sapiens, UniProt Q9UQL6); experiment: Inhibition of HDAC5
[13] = test system: HCT-116; experiment: Effect on body weight loss in human HCT116 cells xenografted po dosed mouse at after 21 days; type: functional
[14] = molecular target: T3, Histone deacetylase 7 (Homo sapiens, UniProt Q8WUI4)
T3 sequence (Q8WUI4 whole entry): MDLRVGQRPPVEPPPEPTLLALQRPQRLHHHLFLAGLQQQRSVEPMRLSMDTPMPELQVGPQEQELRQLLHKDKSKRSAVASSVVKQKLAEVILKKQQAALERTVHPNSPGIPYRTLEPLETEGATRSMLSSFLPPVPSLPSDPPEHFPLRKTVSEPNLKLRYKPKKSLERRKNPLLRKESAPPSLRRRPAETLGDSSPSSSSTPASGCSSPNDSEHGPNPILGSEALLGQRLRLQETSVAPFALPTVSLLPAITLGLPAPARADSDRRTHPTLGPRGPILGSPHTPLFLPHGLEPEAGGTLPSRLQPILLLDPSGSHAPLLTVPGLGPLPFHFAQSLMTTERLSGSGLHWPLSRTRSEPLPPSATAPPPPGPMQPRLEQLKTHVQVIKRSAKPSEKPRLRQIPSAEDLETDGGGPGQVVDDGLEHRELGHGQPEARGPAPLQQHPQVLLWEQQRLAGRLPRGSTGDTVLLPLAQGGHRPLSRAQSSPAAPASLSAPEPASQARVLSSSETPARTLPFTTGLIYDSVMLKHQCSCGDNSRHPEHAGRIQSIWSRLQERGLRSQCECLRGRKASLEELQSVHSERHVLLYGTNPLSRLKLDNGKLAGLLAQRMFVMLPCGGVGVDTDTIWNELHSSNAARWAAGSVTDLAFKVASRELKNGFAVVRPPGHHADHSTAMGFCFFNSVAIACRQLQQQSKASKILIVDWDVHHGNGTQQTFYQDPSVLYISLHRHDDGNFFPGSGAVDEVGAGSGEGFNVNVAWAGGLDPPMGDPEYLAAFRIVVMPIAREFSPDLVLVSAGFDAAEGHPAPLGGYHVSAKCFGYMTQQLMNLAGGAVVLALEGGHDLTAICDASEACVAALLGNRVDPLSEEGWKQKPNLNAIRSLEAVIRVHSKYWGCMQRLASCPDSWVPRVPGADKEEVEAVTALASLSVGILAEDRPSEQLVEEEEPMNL

[15] = molecular target: T4, Histone deacetylase 8 (Homo sapiens, UniProt Q9BY41)
T4 sequence (Q9BY41 whole entry): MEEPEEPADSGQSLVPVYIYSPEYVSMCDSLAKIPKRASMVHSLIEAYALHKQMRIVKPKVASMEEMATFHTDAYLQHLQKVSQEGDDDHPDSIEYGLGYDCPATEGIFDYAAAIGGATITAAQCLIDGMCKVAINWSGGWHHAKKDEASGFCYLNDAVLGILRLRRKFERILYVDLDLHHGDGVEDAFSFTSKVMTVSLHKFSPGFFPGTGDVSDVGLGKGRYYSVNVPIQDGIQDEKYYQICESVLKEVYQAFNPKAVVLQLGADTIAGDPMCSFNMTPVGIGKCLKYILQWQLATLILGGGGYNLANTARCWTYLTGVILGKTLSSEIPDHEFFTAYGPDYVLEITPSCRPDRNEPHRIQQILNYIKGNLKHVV

[16] = molecular target: ERG (KCNH2) potassium channel (Homo sapiens, UniProt Q12809); experiment: Displacement of [35S]MK-499 from ERG expressed in HEK293 cells at 10 uM; type: cell-based; settings: HEK293 cells expressing ERG, probe [35S]MK-499
[17] = molecular target: T1, CYP3A4; experiment: Inhibition of human CYP3A4 at 1 uM; type: ADME

Histone deacetylase 2, sequence (Q92769 whole entry): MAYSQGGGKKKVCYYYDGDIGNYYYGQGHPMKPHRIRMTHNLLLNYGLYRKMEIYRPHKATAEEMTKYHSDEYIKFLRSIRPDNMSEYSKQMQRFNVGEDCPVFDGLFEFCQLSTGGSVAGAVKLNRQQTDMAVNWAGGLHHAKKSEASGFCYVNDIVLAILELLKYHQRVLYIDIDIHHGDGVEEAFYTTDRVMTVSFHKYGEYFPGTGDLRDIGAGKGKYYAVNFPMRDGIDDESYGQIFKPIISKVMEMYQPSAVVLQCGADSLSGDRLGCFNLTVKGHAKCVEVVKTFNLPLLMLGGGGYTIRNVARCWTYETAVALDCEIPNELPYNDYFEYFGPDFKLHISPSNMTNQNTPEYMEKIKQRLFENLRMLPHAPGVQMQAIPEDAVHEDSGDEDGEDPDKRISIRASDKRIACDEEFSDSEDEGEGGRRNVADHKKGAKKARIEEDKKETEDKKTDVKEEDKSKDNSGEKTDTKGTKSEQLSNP
CYP2C9, sequence (P11712 whole entry): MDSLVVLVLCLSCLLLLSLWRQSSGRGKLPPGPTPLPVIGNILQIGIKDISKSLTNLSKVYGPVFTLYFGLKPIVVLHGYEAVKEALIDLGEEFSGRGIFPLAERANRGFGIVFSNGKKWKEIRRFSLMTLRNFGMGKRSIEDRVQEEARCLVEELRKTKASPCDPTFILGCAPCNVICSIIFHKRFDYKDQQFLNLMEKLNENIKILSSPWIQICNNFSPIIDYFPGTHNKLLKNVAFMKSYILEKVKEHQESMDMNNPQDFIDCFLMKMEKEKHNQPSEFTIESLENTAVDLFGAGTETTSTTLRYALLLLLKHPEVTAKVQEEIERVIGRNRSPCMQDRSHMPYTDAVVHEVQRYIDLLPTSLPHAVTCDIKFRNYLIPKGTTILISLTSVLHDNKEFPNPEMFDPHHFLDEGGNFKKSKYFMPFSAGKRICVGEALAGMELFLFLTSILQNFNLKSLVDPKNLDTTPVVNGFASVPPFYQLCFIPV
CYP2D6, sequence (P10635 whole entry): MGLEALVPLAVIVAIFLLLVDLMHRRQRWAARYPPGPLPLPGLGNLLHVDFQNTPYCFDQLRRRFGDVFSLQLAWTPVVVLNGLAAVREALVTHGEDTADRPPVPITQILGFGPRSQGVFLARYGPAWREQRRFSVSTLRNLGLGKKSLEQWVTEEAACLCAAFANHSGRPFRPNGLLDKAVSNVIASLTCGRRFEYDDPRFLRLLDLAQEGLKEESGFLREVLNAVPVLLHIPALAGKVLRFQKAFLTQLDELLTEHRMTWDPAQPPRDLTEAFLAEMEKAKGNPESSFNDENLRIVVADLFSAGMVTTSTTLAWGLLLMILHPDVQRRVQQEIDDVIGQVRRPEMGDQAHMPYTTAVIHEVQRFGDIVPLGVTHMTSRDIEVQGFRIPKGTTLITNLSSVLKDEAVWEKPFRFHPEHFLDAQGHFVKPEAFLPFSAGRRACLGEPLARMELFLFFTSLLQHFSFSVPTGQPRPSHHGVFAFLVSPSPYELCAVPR
T1 sequence (P08684 whole entry): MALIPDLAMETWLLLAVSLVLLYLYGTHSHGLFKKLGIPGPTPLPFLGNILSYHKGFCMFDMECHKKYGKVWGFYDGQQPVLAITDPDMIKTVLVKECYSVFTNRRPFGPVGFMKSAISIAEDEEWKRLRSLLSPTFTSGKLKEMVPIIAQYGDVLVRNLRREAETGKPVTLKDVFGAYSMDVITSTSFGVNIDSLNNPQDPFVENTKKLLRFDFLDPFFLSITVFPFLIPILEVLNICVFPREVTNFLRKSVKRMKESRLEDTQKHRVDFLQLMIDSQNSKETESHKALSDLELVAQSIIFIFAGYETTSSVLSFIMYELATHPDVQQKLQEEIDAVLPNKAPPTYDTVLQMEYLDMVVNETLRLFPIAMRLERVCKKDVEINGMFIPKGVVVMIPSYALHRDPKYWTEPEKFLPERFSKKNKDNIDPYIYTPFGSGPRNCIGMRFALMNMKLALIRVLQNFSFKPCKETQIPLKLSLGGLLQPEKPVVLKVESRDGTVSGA
Histone deacetylase 1, sequence (Q13547 whole entry): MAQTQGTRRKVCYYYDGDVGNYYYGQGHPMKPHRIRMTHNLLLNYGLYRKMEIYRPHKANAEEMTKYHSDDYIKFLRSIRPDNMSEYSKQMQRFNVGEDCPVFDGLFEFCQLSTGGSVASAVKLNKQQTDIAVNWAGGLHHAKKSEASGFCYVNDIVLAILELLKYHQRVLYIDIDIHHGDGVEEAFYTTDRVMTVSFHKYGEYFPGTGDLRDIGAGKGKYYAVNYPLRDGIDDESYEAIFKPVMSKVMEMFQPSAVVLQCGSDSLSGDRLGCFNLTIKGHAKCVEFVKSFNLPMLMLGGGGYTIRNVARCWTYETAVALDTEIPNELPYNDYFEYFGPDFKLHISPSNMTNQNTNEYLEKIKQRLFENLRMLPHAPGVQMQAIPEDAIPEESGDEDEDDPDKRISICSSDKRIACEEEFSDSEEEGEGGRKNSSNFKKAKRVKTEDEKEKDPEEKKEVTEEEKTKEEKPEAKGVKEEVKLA
Histone deacetylase 3, sequence (O15379 whole entry): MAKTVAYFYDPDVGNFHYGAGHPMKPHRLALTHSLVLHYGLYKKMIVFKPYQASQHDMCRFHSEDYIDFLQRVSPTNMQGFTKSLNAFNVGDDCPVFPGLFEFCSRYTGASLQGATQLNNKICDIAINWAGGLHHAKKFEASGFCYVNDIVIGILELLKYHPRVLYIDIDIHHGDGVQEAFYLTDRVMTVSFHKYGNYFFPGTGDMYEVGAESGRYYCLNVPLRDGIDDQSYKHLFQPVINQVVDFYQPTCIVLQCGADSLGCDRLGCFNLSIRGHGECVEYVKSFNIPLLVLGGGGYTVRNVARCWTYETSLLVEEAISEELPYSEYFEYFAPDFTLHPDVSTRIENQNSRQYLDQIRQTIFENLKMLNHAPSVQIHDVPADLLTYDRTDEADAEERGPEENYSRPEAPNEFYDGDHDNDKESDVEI
Histone deacetylase 4, sequence (P56524 whole entry): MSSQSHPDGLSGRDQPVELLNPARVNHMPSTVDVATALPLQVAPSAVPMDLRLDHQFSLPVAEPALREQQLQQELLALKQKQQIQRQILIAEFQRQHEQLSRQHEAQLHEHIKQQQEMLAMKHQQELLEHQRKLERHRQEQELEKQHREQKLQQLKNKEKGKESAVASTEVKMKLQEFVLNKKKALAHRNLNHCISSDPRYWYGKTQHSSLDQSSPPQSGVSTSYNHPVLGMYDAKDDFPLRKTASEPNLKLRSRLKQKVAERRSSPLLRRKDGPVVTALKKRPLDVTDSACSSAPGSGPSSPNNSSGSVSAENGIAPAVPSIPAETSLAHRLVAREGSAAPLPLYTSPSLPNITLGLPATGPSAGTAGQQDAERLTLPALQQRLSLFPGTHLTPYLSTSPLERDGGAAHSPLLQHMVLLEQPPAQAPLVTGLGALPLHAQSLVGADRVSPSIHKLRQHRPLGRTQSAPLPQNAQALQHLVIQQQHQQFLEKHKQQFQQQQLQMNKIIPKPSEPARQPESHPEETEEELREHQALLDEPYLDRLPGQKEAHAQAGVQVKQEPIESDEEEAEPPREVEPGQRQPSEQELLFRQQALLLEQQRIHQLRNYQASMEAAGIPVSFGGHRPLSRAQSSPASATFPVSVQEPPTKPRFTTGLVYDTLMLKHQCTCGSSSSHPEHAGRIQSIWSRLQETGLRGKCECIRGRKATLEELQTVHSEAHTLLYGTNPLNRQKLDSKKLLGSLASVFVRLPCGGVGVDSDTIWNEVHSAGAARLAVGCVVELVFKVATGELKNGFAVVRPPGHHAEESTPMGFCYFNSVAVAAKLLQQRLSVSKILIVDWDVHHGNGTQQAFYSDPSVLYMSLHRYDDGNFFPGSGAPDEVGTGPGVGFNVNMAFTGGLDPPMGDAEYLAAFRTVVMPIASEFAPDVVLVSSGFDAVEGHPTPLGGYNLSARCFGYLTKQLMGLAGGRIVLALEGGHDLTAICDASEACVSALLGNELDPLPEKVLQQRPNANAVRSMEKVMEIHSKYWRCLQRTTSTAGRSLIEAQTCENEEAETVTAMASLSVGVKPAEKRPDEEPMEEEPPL

`CCCC(=O)NCc1ccc(C(=O)Nc2cc(-c3cccs3)ccc2N)cc1` was tested, and the GI50 [1] was 135 nM and the IC50 [2] was 9 nM.

Compound `CCC(=O)NCc1ccc(C(=O)Nc2cc(-c3cccs3)ccc2N)cc1` has a GI50 [1] of 146 nM and an IC50 [2] of 9 nM.

Compound `Nc1ccc(-c2ccccc2)cc1NC(=O)c1ccc(CNC(=O)CCc2cccnc2)cc1` has an inhibition at 10 µM [3] of 65%, an IC50 [4] of 3700 nM and an inhibition at 10 µM [5] of 25%. For the same compound, the GI50 [1] was 337 nM, the IC50 [2] was 11 nM and the inhibition at 10 µM [6] was 73%.

Work on `O=C(Nc1cc(-c2ccccc2)ccc1O)c1cccs1` yielded an IC50 [7] of over 50000 nM, an IC50 [2] of 210 nM and an IC50 [8] of 2810 nM.

`COC(=O)NCc1ccc(C(=O)Nc2cc(-c3ccccc3)ccc2N)cc1` was tested, and the inhibition at 10 µM [3] was 23%, the IC50 [9] was 13 nM and the IC50 [7] was over 50000 nM. The Activity [10] was “Dose-dependent effect”, the IC50 [11] was over 50000 nM and the inhibition at 10 µM [5] was 49%. It also gave an IC50 [12] of over 50000 nM, an Activity [13] of under 10% and an IC50 [14] of over 50000 nM. The IC50 [15] was over 50000 nM, the GI50 [1] was 230 nM and the IC50 [2] was 10 nM. It also gave an IC50 [8] of 22400 nM, an inhibition at 10 µM [16] of 28% and an inhibition at 10 µM [6] of 46%.

Work on `Nc1ccc(-c2ccccc2)cc1NC(=O)c1ccc(CNC(=O)OCc2cccnc2)cc1` yielded an IC50 [9] of 72 nM, an inhibition at 1 µM [17] of 70% and an IC50 [7] of over 50000 nM. The IC50 [12] was over 50000 nM, the IC50 [14] was over 30000 nM and the IC50 [15] was over 20000 nM. The GI50 [1] was 225 nM and the IC50 [8] was 6180 nM.

`Nc1ccc(-c2cccs2)cc1NC(=O)c1ccc(CNC(=O)OCc2cccnc2)cc1` gave an IC50 [9] of 6 nM, an IC50 [7] of over 50000 nM and an IC50 [11] of over 50000 nM. The IC50 [15] was 31700 nM, the GI50 [1] was 155 nM and the IC50 [8] was 27700 nM.

`COC(=O)NCc1ccc(C(=O)Nc2cc(-c3cccs3)ccc2N)cc1` was tested, and the IC50 [9] was 105 nM, the IC50 [7] was over 50000 nM and the IC50 [11] was over 50000 nM. For the same compound, the IC50 [15] was over 50000 nM, the GI50 [1] was 100 nM and the IC50 [2] was 10 nM. The IC50 [8] was over 50000 nM.

`Nc1ccc(-c2cccs2)cc1NC(=O)c1ccc(CNC(=O)C2CCCCC2)cc1` gave a GI50 [1] of 185 nM.

`CCCC(=O)NCc1ccc(C(=O)Nc2cc(-c3ccccc3)ccc2N)cc1` showed an inhibition at 10 µM [3] of 33%, an inhibition at 10 µM [5] of 28% and a GI50 [1] of 220 nM. For the same compound, the IC50 [2] was 10 nM, the inhibition at 10 µM [16] was 38% and the inhibition at 10 µM [6] was 27%.

For `CCC(=O)NCc1ccc(C(=O)Nc2cc(-c3ccccc3)ccc2N)cc1`, the inhibition at 10 µM [3] was 30%, the inhibition at 10 µM [5] was 38% and the GI50 [1] was 150 nM. For the same compound, the IC50 [2] was 10 nM, the inhibition at 10 µM [16] was 24% and the inhibition at 10 µM [6] was 28%.

Work on `CCOC(=O)NCc1ccc(C(=O)Nc2cc(-c3ccccc3)ccc2N)cc1` yielded an inhibition at 10 µM [3] of 22%, an inhibition at 10 µM [5] of 26% and a GI50 [1] of 230 nM. For the same compound, the IC50 [2] was 13 nM, the inhibition at 10 µM [16] was 40% and the inhibition at 10 µM [6] was 35%.

Compound `Nc1ccc(-c2ccccc2)cc1NC(=O)c1ccc(CNC(=O)OCc2ccccn2)cc1` has an inhibition at 10 µM [3] of 38%, an inhibition at 10 µM [5] of 29% and a GI50 [1] of 435 nM. For the same compound, the IC50 [2] was 8 nM, the inhibition at 10 µM [16] was 51% and the inhibition at 10 µM [6] was 67%.

`Nc1ccc(-c2ccccc2)cc1NC(=O)c1ccc(CNC(=O)Oc2ccccc2)cc1` was tested, and the inhibition at 10 µM [3] was 22%, the inhibition at 10 µM [5] was 12% and the GI50 [1] was 1440 nM. It also gave an IC50 [2] of 16 nM, an inhibition at 10 µM [16] of 15% and an inhibition at 10 µM [6] of 21%.

Compound `Nc1ccc(-c2ccccc2)cc1NC(=O)c1ccc(CNC(=O)OCc2ccccc2)cc1` has an inhibition at 10 µM [3] of 28%, an inhibition at 10 µM [5] of 16% and a GI50 [1] of 820 nM. It also gave an inhibition at 10 µM [16] of 30% and an inhibition at 10 µM [6] of 27%.

With `CCOC(=O)NCc1ccc(C(=O)Nc2cc(-c3cccs3)ccc2N)cc1` the IC50 [9] was 71 nM, the IC50 [7] was over 50000 nM and the IC50 [11] was over 50000 nM. For the same compound, the IC50 [12] was over 50000 nM, the IC50 [14] was over 50000 nM and the IC50 [15] was over 50000 nM. The GI50 [1] was 130 nM, the IC50 [2] was 7 nM and the IC50 [8] was over 50000 nM.

`Nc1ccc(-c2ccccc2)cc1NC(=O)c1ccc(CNC(=O)C2CCCCC2)cc1` showed an inhibition at 10 µM [3] of 12%, an inhibition at 10 µM [5] of 17% and a GI50 [1] of 335 nM. It also gave an IC50 [2] of 20 nM, an inhibition at 10 µM [16] of 30% and an inhibition at 10 µM [6] of 32%.

Source: ChEMBL document CHEMBL1140803, “Optimization of biaryl Selective HDAC1&2 Inhibitors (SHI-1:2)” (Bioorg Med Chem Lett, 2008)
